Reference: PubChem BioAssay AID256 (DTP/NCI, 2004)
Where “and” joins values, the source holds several entries; their conditions need not be identical. Equal values may be shown once. Inconclusive results and toxic doses are left out. Rule for the calls: active = survival T/C of 150% or more; inactive = T/C below 125% in these data.

Test system: CD2F1 mice, L1210 leukemia ip, survival T/C
Assay: NCI In Vivo Anticancer Drug Screen. Data for tumor model L1210 Leukemia (intraperitoneal) in CD2F1 (CDF1) mice
Settings: higher = longer survival
Outline: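 Transplantable tumor in mice; compound-treated vs vehicle-treated groups. Read-out = treated/control ratio of the measured endpoint.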

[1] = endpoint: mean survival time, dose: 100.0 mg/kg/injection, schedule: Q04DX003 (ip), vehicle: saline with Tween-80
[2] = endpoint: mean survival time, dose: 200.0 mg/kg/injection, schedule: Q04DX003 (ip), vehicle: saline with Tween-80
[3] = endpoint: mean survival time, dose: 400.0 mg/kg/injection, schedule: Q04DX003 (ip), vehicle: saline with Tween-80
[4] = endpoint: mean survival time, dose: 12.5 mg/kg/injection, schedule: Q01DX009 (ip), vehicle: saline with Tween-80
[5] = endpoint: mean survival time, dose: 12.5 mg/kg/injection, schedule: Q01DX009 (ip), vehicle: saline
[6] = endpoint: mean survival time, dose: 25.0 mg/kg/injection, schedule: Q01DX009 (ip), vehicle: saline with Tween-80
[7] = endpoint: mean survival time, dose: 25.0 mg/kg/injection, schedule: Q01DX009 (ip), vehicle: saline
[8] = endpoint: mean survival time, dose: 50.0 mg/kg/injection, schedule: Q01DX009 (ip), vehicle: saline with Tween-80
[9] = endpoint: mean survival time, dose: 100.0 mg/kg/injection, schedule: Q01DX009 (ip), vehicle: saline with Tween-80
[10] = endpoint: mean survival time, dose: 200.0 mg/kg/injection, schedule: Q01DX009 (ip), vehicle: saline with Tween-80
[11] = endpoint: mean survival time, dose: 50.0 mg/kg/injection, schedule: Q01DX009 (ip), vehicle: Klucel (hydroxypropylcellulose) (HPC)
[12] = endpoint: mean survival time, dose: 100.0 mg/kg/injection, schedule: Q01DX009 (ip), vehicle: Klucel (hydroxypropylcellulose) (HPC)
[13] = endpoint: mean survival time, dose: 200.0 mg/kg/injection, schedule: Q01DX009 (ip), vehicle: Klucel (hydroxypropylcellulose) (HPC)
[14] = endpoint: mean survival time, dose: 12.5 mg/kg/injection, schedule: Q04DX002 (ip), vehicle: saline with Tween-80
[15] = endpoint: mean survival time, dose: 25.0 mg/kg/injection, schedule: Q04DX002 (ip), vehicle: saline with Tween-80
[16] = endpoint: mean survival time, dose: 3.12 mg/kg/injection, schedule: Q01DX009 (ip), vehicle: saline with Tween-80
[17] = endpoint: mean survival time, dose: 100.0 mg/kg/injection, schedule: Q01DX001 (ip), vehicle: saline with Tween-80
[18] = endpoint: mean survival time, dose: 200.0 mg/kg/injection, schedule: Q01DX001 (ip), vehicle: saline with Tween-80
[19] = endpoint: mean survival time, dose: 400.0 mg/kg/injection, schedule: Q01DX001 (ip), vehicle: saline with Tween-80

Measured: T/C

Fc1ccc2nc(C(F)(F)F)cc(Br)c2c1
inactive: [1] 103 % of control | [2] 98 % of control | [3] 101 % of control

C=CS(=O)(=O)CCCC
inactive: endpoint: mean survival time, dose: 100.0 mg/kg/injection, schedule: Q01DX001 (ip), vehicle: Klucel (hydroxypropylcellulose) (HPC) 96 % of control | endpoint: mean survival time, dose: 200.0 mg/kg/injection, schedule: Q01DX001 (ip), vehicle: Klucel (hydroxypropylcellulose) (HPC) 96 % of control | endpoint: mean survival time, dose: 400.0 mg/kg/injection, schedule: Q01DX001 (ip), vehicle: Klucel (hydroxypropylcellulose) (HPC) 101 % of control

CN(C)[C@@H]1C(=O)C(C(N)=O)=C(O)[C@@]2(O)C(=O)C3=C(O)c4c(O)ccc(Cl)c4[C@@](C)(O)[C@H]3C[C@@H]12
inactive: [4] 98 % of control | [5] 107 % of control | [6] 97 % of control | [7] 101 % of control | [8] 93 % of control and 108 % of control | endpoint: mean survival time, dose: 50.0 mg/kg/injection, schedule: Q01DX009 (ip), vehicle: saline 103 % of control | [9] 104 % of control and 111 % of control | endpoint: mean survival time, dose: 100.0 mg/kg/injection, schedule: Q01DX009 (ip), vehicle: saline 113 % of control | [10] 102 % of control

CCOC(=O)C(C#N)C(C(C)=O)C(=O)OCC (configuration not stated)
inactive: endpoint: mean survival time, dose: 25.0 mg/kg/injection, schedule: Q04DX003 (ip), vehicle: saline with Tween-80 103 % of control | endpoint: mean survival time, dose: 50.0 mg/kg/injection, schedule: Q04DX003 (ip), vehicle: saline with Tween-80 98 % of control | [1] 97 % of control

O=C(/C=C/c1ccccc1)N/N=C/c1ccccc1Cl
inactive: [11] 105 % of control | [12] 105 % of control | [13] 105 % of control

C=C/C(C)=N/Nc1ccc([N+](=O)[O-])cc1[N+](=O)[O-]
inactive: [1] 94 % of control | [2] 95 % of control | [3] 95 % of control

C/C(=N/O)C1=C(O)C(Cc2ccccc2)NC1=O (configuration not stated)
inactive: [14] 100 % of control | [15] 121 % of control | endpoint: mean survival time, dose: 50.0 mg/kg/injection, schedule: Q04DX002 (ip), vehicle: saline with Tween-80 103 % of control

Cc1ncc2cnccn12
inactive: endpoint: mean survival time, dose: 50.0 mg/kg/injection, schedule: Q01DX009 (ip), vehicle: saline sonified 101 % of control | endpoint: mean survival time, dose: 100.0 mg/kg/injection, schedule: Q01DX009 (ip), vehicle: saline sonified 104 % of control | endpoint: mean survival time, dose: 100.0 mg/kg/injection, schedule: Q04DX003 (ip), vehicle: saline 97 % of control | endpoint: mean survival time, dose: 200.0 mg/kg/injection, schedule: Q04DX003 (ip), vehicle: saline 101 % of control

Oc1c(Cl)cc(Cl)cc1C=NCC1CCC(CN=Cc2cc(Cl)cc(Cl)c2O)CC1 (configuration not stated)
inactive: [2] 90 % of control | [3] 90 % of control

CC1(C)OC(C(COC(c2ccccc2)(c2ccccc2)c2ccccc2)OC(=O)c2ccccc2)C(C(COC(c2ccccc2)(c2ccccc2)c2ccccc2)OC(=O)c2ccccc2)O1 (configuration not stated)
inactive: [11] 98 % of control | [12] 94 % of control | [13] 94 % of control

CS(=O)(=O)OCCBr
inactive: endpoint: mean survival time, dose: 50.0 mg/kg/injection, schedule: Q04DX003 (ip), vehicle: saline 102 % of control

O=C(Nc1cccc2c(OC(=O)C(Cl)Cl)c(N=Nc3ccc(S(=O)(=O)Nc4nccs4)cc3)cc(N=Nc3ccc(S(=O)(=O)Nc4nccs4)cc3)c12)C(Cl)Cl (tested in a mixture with another compound)
inactive: [16] 96 % of control and 101 % of control | endpoint: mean survival time, dose: 6.25 mg/kg/injection, schedule: Q01DX009 (ip), vehicle: saline with Tween-80 95 % of control and 101 % of control | [4] 96 % of control and 102 % of control | [6] 101 % of control and 106 % of control | [8] 101 % of control and 110 % of control | [9] 113 % of control and 112 % of control | endpoint: median survival time, dose: 100.0 mg/kg/injection, schedule: Q01DX009 (ip), vehicle: saline with Tween-80 113 % of control | endpoint: median survival time, dose: 200.0 mg/kg/injection, schedule: Q01DX009 (ip), vehicle: saline with Tween-80 106 % of control | endpoint: median survival time, dose: 400.0 mg/kg/injection, schedule: Q01DX009 (ip), vehicle: saline with Tween-80 100 % of control

CCC(=O)OC1(c2ccccc2)CCN(C/C=C/c2ccccc2[N+](=O)[O-])CC1
inactive: endpoint: median survival time, dose: 12.5 mg/kg/injection, schedule: Q04DX003 (ip), vehicle: saline with Tween-80 100 % of control | endpoint: median survival time, dose: 25.0 mg/kg/injection, schedule: Q04DX003 (ip), vehicle: saline with Tween-80 88 % of control | endpoint: median survival time, dose: 50.0 mg/kg/injection, schedule: Q04DX003 (ip), vehicle: saline with Tween-80 100 % of control | endpoint: median survival time, dose: 100.0 mg/kg/injection, schedule: Q04DX003 (ip), vehicle: saline with Tween-80 100 % of control

O=[N+]([O-])c1ccc(-c2ccccc2)cc1
inactive: [1] 100 % of control | [2] 96 % of control | [3] 97 % of control

CC1CC(=O)C2CC(Cl)CCC2(C)C1C (configuration not stated)
inactive: [6] 97 % of control | [8] 90 % of control | [9] 94 % of control

CC(C)N1CCc2cc3c(cc2C1)OCO3
inactive: endpoint: mean survival time, dose: 75.0 mg/kg/injection, schedule: Q01DX001 (ip), vehicle: saline 100 % of control | endpoint: mean survival time, dose: 100.0 mg/kg/injection, schedule: Q01DX001 (ip), vehicle: saline 100 % of control

Cn1c(CC#N)c(C[N+](C)(C)C)c2ccccc21
inactive: endpoint: mean survival time, dose: 2.5 mg/kg/injection, schedule: Q01DX009 (ip), vehicle: saline with Tween-80 97 % of control | endpoint: mean survival time, dose: 5.0 mg/kg/injection, schedule: Q01DX001 (ip), vehicle: saline with Tween-80 102 % of control | endpoint: mean survival time, dose: 5.0 mg/kg/injection, schedule: Q01DX009 (ip), vehicle: saline with Tween-80 97 % of control | endpoint: mean survival time, dose: 10.0 mg/kg/injection, schedule: Q01DX001 (ip), vehicle: saline with Tween-80 96 % of control

CCCC[S+](CCCC)CC(=O)c1ccc(-c2ccccc2)cc1
inactive: endpoint: mean survival time, dose: 0.19 mg/kg/injection, schedule: Q01DX009 (ip), vehicle: saline with Tween-80 97 % of control | endpoint: mean survival time, dose: 0.39 mg/kg/injection, schedule: Q01DX009 (ip), vehicle: saline with Tween-80 101 % of control | endpoint: mean survival time, dose: 0.76 mg/kg/injection, schedule: Q01DX009 (ip), vehicle: saline with Tween-80 98 % of control | endpoint: mean survival time, dose: 1.56 mg/kg/injection, schedule: Q01DX009 (ip), vehicle: saline with Tween-80 97 % of control | endpoint: mean survival time, dose: 1.56 mg/kg/injection, schedule: Q01DX009 (ip), vehicle: saline 86 % of control | [16] 98 % of control | endpoint: mean survival time, dose: 3.13 mg/kg/injection, schedule: Q01DX009 (ip), vehicle: saline 87 % of control | [5] 87 % of control | [7] 87 % of control

O=C(CC(=O)C(F)(F)C(F)(F)C(F)(F)F)C(F)(F)F.O=C(CC(=O)C(F)(F)C(F)(F)C(F)(F)F)C(F)(F)F.[Cu]
inactive: endpoint: mean survival time, dose: 3.13 mg/kg/injection, schedule: Q04DX002 (ip), vehicle: saline with Tween-80 90 % of control | endpoint: mean survival time, dose: 6.25 mg/kg/injection, schedule: Q04DX002 (ip), vehicle: saline with Tween-80 87 % of control | [14] 102 % of control | [15] 98 % of control | endpoint: median survival time, dose: 25.0 mg/kg/injection, schedule: Q04DX002 (ip), vehicle: saline with Tween-80 111 % of control

Cc1sc(C)c(CCl)c1CCl
inactive: [4] 104 % of control | [6] 108 % of control | [8] 98 % of control

O=C(O)C1=NN(c2ccc(S(=O)(=O)O)cc2)C(=O)C1
inactive: [9] 96 % of control | [10] 92 % of control | endpoint: mean survival time, dose: 400.0 mg/kg/injection, schedule: Q01DX009 (ip), vehicle: saline with Tween-80 92 % of control

N=P(N[P+](N)(c1ccccc1)c1ccccc1)(c1ccccc1)c1ccccc1
inactive: endpoint: mean survival time, dose: 1.56 mg/kg/injection, schedule: Q01DX009 (ip), vehicle: Klucel (hydroxypropylcellulose) (HPC) 103 % of control | endpoint: mean survival time, dose: 3.12 mg/kg/injection, schedule: Q01DX009 (ip), vehicle: Klucel (hydroxypropylcellulose) (HPC) 103 % of control | endpoint: mean survival time, dose: 6.25 mg/kg/injection, schedule: Q01DX009 (ip), vehicle: Klucel (hydroxypropylcellulose) (HPC) 91 % of control and 103 % of control

S=C(Nc1ccccn1)NC1CC2C=CC1C2 (configuration not stated)
inactive: [17] 93 % of control | [18] 101 % of control | [19] 108 % of control

CC(F)(F)Cc1ccccc1
inactive: [17] 110 % of control | [1] 98 % of control | [18] 102 % of control | [2] 95 % of control | [19] 102 % of control | [3] 98 % of control

O=c1[nH]c(SCc2ccc(Cl)cc2)nc(-c2ccc(Cl)cc2)c1CCO
inactive: [12] 87 % of control | [13] 87 % of control | endpoint: mean survival time, dose: 400.0 mg/kg/injection, schedule: Q01DX009 (ip), vehicle: Klucel (hydroxypropylcellulose) (HPC) 87 % of control
